Patent US20260209301A1, “Galanin-2 Receptor Agonists” (LIFEARC, priority 2022, published 2026)

How the values were obtained:
[1] = biological target: T1, mouse GalR2 (Mus musculus, UniProt O88854); experiment: Calcium assay at orthologue receptor; type: cell-based; conditions: Table 8; Calcium assays; mean +/− standard deviation
T1 sequence (O88854 1-371): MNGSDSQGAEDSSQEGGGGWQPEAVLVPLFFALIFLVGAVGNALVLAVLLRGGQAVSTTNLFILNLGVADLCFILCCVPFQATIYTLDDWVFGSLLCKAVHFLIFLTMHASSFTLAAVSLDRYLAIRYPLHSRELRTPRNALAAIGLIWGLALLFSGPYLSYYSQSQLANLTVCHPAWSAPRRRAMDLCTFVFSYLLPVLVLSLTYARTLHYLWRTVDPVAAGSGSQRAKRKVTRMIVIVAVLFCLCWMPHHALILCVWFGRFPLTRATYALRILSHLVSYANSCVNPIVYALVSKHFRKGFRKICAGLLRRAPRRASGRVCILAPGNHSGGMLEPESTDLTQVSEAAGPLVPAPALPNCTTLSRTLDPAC
Source text: These species were chosen as they represent potential downstream in vivo models to be used. Within native galanin amino acid residues 1-15 are conserved across species, we would therefore expect the Gal FC fusions comprising amino acids 2 to 13 to retain GalR2 activity in these species. Calcium imaging was used to define receptor activity.

[2] = tested on: mouse CFA model of inflammatory pain; experiment: CFA-induced inflammatory pain model, weight bearing; type: in vivo
Source text: Intraplantar injection of Complete Freunds adjuvant (CFA) causes an inflammatory reaction which induces hypersensitivity and oedema and mimics some aspects of clinical inflammatory pain. These effects can be investigated using equipment to measure the […]. Naive mice distribute their body weight equally between the two hind paws. When the injected hind paw is inflamed and/or painful, the weight is re-distributed so that less weight is put on the affected paw (decrease in weight bearing on injured paw). Weight bearing through each hind limb is measured using an incapacitance tester (Linton Instruments, UK).
Environmental conditions: Animals were housed in standard caging and laboratory conditions in groups of 2-5, with free access to food (5CR4, Purina) and water (except during placement in the incapacitance box) on a 12/12 light/dark cycle. […] Weight bearing: Mice were placed in the incapacitance tester with the hind paws on separate sensors and the average force exerted by both hind limbs was recorded over 2 seconds. […] Prior to test compound treatment, weight bearing readings were taken to assess baseline hypersensitivity 23 hours post-CFA. […] Weight bearing was then assessed at 4, 24, 48 and 72 hours post-test compound treatment.
Weight bearing (g) readings were taken for both right and left hind paws and the difference calculated. […]

[3] = tested on: mouse chemotherapy-induced model of neuropathic pain; experiment: Oxaliplatin chemotherapy-induced neuropathic pain model, von Frey; type: in vivo; conditions: 0.1, 1 and 3 mg/kg i.p.; 4 hours post dose (day 5 after Oxaliplatin)
Protocol: Oxaliplatin-induced hypersensitivity: A single dose of Oxaliplatin was injected intraperitoneally (i.p.) at 10 mg/kg at a volume of 10 ml/kg. Oxaliplatin was dissolved in 5% dextrose to 1 mg/ml before use. Animals were injected in the same order in which they were tested.
Static mechanical tactile allodynia: Static mechanical (tactile) allodynia was assessed by measurement of withdrawal threshold using calibrated (force; g) von-Frey monofilaments (Touch-Test Sensory Evaluator; Scientific Marketing Associates) applied to the plantar surface of the hind paw. Animals were placed in individual Perspex boxes on a raised metal mesh for 30-40 min before the test. A series of graduated von Frey hairs (0.07, 0.16, 0.4, 0.6 and 1 g) was applied in sequence with a protocol of 1 sec on 1 sec off repeated 10 times. […] The force applied to the hind-paw of the animal to induce 5 responses out of 10 trials was recorded as paw withdrawal threshold (PWT).
Baseline PWT was assessed on three consecutive days (Day-3, Day-2 and Day-1). […]
Mechanical allodynia was re-assessed on Day 3 and 4 post-administration of a single dose of Oxaliplatin to monitor the development of allodynia. […]
Mechanical allodynia was re-assessed on Day 5 (4 hours post dose) and thereafter determined on Days 6 and 7 after administration of Oxaliplatin (i.e. 24 hours and 48 hours post FC2-13 treatment). […]

| Substance | Mouse GalR2 activity [1] | MED, reversal of hyperalgesia induced by CFA [2] [mg/kg i.p.] | duration of reversal of hyperalgesia induced by CFA [2] [h] | reversal of Oxaliplatin-induced mechanical hyperalgesia [3] |
| --- | --- | --- | --- | --- |
| Gal2-13FC: galanin 2-13, AEAAAKEAAAKA linker, human IgG1 FC; SEQ ID NO: 7 | 6.4 +/− 0.3 | ≤ 1 | ≥ 72 | efficacious |
| Gal2-30FC: galanin 2-30, AEAAAKEAAAKA linker, human IgG1 FC; SEQ ID NO: 28 | 7.0 +/− 0.1 | – | – | – |
